Data published in patent US20030147850A1 (priority 2002, published 2003).

Legend:
[1] = tested on: vesicular stomatitis virus (VSV)
[2] = tested on: erythroleukemia tumor cells; parameters: species or system C57BL male mice; details: mouse, in vivo
P388 tumor cells = tested on: P388 tumor cells; parameters: species or system DBA/BALB(F1) male mice; details: mouse, in vivo, ip, 5 mg/kg

Substance	protection of cells against virus-induced cytopathology [1]	Tumor mass [2] [mg]	Tumor mass (P388 tumor cells) [mg]
Disodium succinate hexahydrate	no effect	–	–
Recombinant human interferon-alpha2b [IFN]	–	354 ± 16	4800 ± 500
